Results: publication PMC4691061, “Repositioning of Thiourea-Containing Drugs as Tyrosinase Inhibitors” (International Journal of Molecular Sciences, 2015)
Like-named read-outs stand apart in the source and are kept apart here.

Assays:
[1] = biological target: tyrosinase; settings: cited from earlier work
[2] = tested on: B16F10 cells; assay: MTT cell viability assay; settings: for MTT (%): 20 µM, mean ± SD, triplicate
[3] = biological target: T1, mammalian tyrosinase (Mus musculus, UniProt P11344); assay: Tyrosinase enzyme assay with B16F10 cell lysates; assay type: biochemical, murine; settings: for Cell Lysate (%): B16F10 cell lysates, DOPA substrate, absence of inhibitor = 100%; for inhibition of mammalian tyrosinase (in words): cell extracts of B16F10 cells
T1 construct: host or cells: B16F10 murine melanoma cells (lysate supernatant)
T1 sequence (P11344 19-533): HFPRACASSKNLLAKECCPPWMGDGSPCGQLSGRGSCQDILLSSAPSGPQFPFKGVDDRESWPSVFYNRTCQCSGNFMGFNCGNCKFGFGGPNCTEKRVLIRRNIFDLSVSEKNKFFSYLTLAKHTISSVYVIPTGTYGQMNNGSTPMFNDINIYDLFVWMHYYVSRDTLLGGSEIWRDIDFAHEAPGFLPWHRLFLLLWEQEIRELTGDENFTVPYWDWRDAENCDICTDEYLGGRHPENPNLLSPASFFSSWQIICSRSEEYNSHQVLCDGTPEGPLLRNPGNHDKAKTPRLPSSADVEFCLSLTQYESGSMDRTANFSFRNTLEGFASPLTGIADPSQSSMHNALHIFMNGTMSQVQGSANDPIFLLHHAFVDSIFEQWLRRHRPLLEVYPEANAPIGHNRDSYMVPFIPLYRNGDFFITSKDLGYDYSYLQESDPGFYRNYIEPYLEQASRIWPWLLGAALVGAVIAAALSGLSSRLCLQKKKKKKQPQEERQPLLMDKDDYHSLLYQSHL

[4] = biological target: T2, mushroom tyrosinase (Agaricus bisporus, UniProt C7FF04); assay: Kinetics of enzyme inhibition (Michaelis-Menten, nonlinear fitting, F-statistics); assay type: biochemical; settings: for Mechanism: model selected by F-statistics among competitive, uncompetitive, non-competitive, mixed
[5] = tested on: B16F10 cells; assay: Melanin content assay (IBMX-stimulated); assay type: cell-based, murine; settings: for activity at 20 µM: Mus musculus
[6] = biological target: T2, mushroom tyrosinase; assay: Mushroom tyrosinase enzyme activity inhibition assay; assay type: biochemical; settings: for LE (ligand efficiency): 1.4 × (−log10IC50)/N, N = number of non-hydrogen atoms; for inhibition of tyrosinase enzyme activity (in words): concentration-dependent profiles, urea, thiourea, selenourea compared without DMSO; for inhibition of tyrosinase (in words): at 300 μM
[7] = BindingDB-registered value, read-out: IC50 of closest known inhibitor
[8] = 20 μM, B16F10 cells, IBMX 100 μM
[9] = B16-F10, 20 µM, B16F10 cells, IBMX 100 μM, absence of inhibitor = 100%, read-out: Melanin Content (%)
[10] = Ki for competitive, Kic for non-competitive model, nonlinear data fitting, read-out: Ki or Kic
[11] = mushroom tyrosinase, 675 μM L-tyrosine as substrate, 5% DMSO, read-out: IC50

T2 sequence (C7FF04 1-392): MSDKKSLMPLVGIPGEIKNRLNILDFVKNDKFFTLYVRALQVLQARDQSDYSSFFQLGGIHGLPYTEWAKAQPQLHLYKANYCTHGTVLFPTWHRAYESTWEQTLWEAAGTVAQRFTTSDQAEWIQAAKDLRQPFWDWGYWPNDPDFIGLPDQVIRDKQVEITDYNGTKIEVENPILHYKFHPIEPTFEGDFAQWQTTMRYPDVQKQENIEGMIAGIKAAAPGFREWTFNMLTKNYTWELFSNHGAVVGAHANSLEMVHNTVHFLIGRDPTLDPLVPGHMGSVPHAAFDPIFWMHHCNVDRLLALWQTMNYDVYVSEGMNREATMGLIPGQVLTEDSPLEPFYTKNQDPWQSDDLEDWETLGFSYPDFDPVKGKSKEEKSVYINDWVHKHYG

SMILES: NC(=S)NN=Cc1ccc(F)cc1 [C00010, 4-fluorobenzaldehyde thiosemicarbazone]
- IC50 [1, 7]: 11 µM

SMILES: NC(=S)NN=C1CCCC1 [C00011, cyclopentanone thiosemicarbazone]
- IC50 [1, 7]: 0.17 µM

SMILES: Nn1c(-c2ccncc2)n[nH]c1=S [C00012]
- Ki ([1]; BindingDB-registered value, column headed IC50, footnote says Ki, read-out: Ki of closest known inhibitor): 1 µM

SMILES: O=c1[nH]c(=S)[nH]c(O)c1Cc1ccc(O)cc1 [C00013]
- IC50 [1, 7]: 70 µM
- IC50 ([1]; known tyrosinase inhibitor, read-out: IC50): 70 µM

SMILES: CCCCOCCOc1ccc(Cc2c(O)[nH]c(=S)[nH]c2=O)cc1 [C00014]
- IC50 [1, 7]: 179 µM

SMILES: NC(=S)Nc1ccccc1 [compound 1, Phenylthiourea]
- MTT (%) [2]: 113 ± 10%
- inhibition mechanism (reported) [1]: competitive inhibitors
- Cell Lysate (%) [3]: 5 ± 1%
- Mechanism [4]: Competitive
- Mechanism ([4]; listed as PTU): competitive inhibitors
- decrease of melanin content [5, 8]: 40%
- activity at 20 µM ([5]; B16-F10, read-out: Melanin Content (%)): 59 ± 7%

SMILES: O=c1cc(CO)occ1O [compound 2, Kojic acid]
- MTT (%) [2]: 114 ± 10%
- inhibition mechanism (reported) [1]: competitive inhibitors
- decrease of melanin content [5, 8]: < 5%
- activity at 20 µM [5, 9]: 108 ± 11%

SMILES: CC(=O)Nc1ccc(/C=N/NC(N)=S)cc1 [compound 3, Thioacetazone]
- MTT (%) [2]: 95 ± 15%
- Cell Lysate (%) [3]: 74 ± 7%
- inhibition of mammalian tyrosinase (in words) [3]: significantly inhibited the function of tyrosinase
- Ki [4]: 18 µM
- Mechanism [4]: Non-competitive
- IC50 [6]: 14 µM
- LE (ligand efficiency) [6]: 0.43
- activity at 20 µM [5, 9]: 102 ± 10%

SMILES: N=C(N)NN=C1C=CC(=NNC(N)=S)C=C1 [compound 4, Ambazone]
- MTT (%) [2]: 95 ± 12%
- cytotoxicity (in words) ([2]; up to 20 μM): without causing cellular toxicity
- Cell Lysate (%) [3]: 87 ± 9%
- inhibition of mammalian tyrosinase (in words) [3]: significantly inhibited the function of tyrosinase
- Ki [4]: 9 µM
- Mechanism [4]: Non-competitive
- IC50 [6]: 15 µM
- LE (ligand efficiency) [6]: 0.42
- effect on melanin content (in words) ([5]; 20 μM, B16F10 cells): decreased melanin content
- decrease of melanin content [5, 8]: 20%
- activity at 20 µM [5, 9]: 80 ± 11%

SMILES: Cn1cc[nH]c1=S [compound 5, Methimazole]
- MTT (%) [2]: 100 ± 9%
- inhibition mechanism (reported) [1]: mixed inhibitor
- Cell Lysate (%) [3]: 93 ± 10%
- inhibition of mammalian tyrosinase (in words) [3]: limited
- Ki [4, 10]: 73 µM
- Mechanism [4]: Non-competitive
- Mechanism ([4]; listed as methimazole): non-competitive inhibitor
- IC50 [6, 11]: 94 µM
- activity at 20 µM [5, 9]: 104 ± 12%

SMILES: CCOC(=O)n1ccn(C)c1=S [compound 6, Carbimazole]
- inhibition of tyrosinase enzyme activity (in words) [6]: did not inhibit tyrosinase
- IC50 [6, 11]: > 2000 µM

SMILES: O=c1cc[nH]c(=S)[nH]1 [compound 7, Thiouracil]
- MTT (%) [2]: 99 ± 10%
- Cell Lysate (%) [3]: 79 ± 9%
- inhibition of mammalian tyrosinase (in words) [3]: significantly inhibited the function of tyrosinase
- Mechanism [4]: Non-competitive
- IC50 [6]: 215 µM
- LE (ligand efficiency) [6]: 0.64
- activity at 20 µM [5, 9]: 106 ± 14%

SMILES: Cc1cc(=O)[nH]c(=S)[nH]1 [compound 8, Methylthiouracil]
- MTT (%) [2]: 108 ± 10%
- Cell Lysate (%) [3]: 78 ± 10%
- inhibition of mammalian tyrosinase (in words) [3]: significantly inhibited the function of tyrosinase
- Ki [4, 10]: 170 µM
- Mechanism [4]: Non-competitive
- LE (ligand efficiency) [6]: 0.56
- IC50 [6, 11]: 266 µM
- activity at 20 µM [5, 9]: 102 ± 14%

SMILES: CCCc1cc(=O)[nH]c(=S)[nH]1 [compound 9, Propylthiouracil]
- MTT (%) [2]: 102 ± 12%
- Cell Lysate (%) [3]: 77 ± 9%
- inhibition of mammalian tyrosinase (in words) [3]: significantly inhibited the function of tyrosinase
- Ki [4]: 196 µM
- Mechanism [4]: Non-competitive
- IC50 [6]: 375 µM
- activity at 20 µM [5, 9]: 102 ± 10%

SMILES: CNC(=S)NC [dimethylthiourea]
- inhibition of tyrosinase (in words) [6]: hardly inhibited tyrosinase
- inhibition of tyrosinase enzyme activity (in words) [6]: much weaker than thiourea

SMILES: CNC(N)=S [monomethylthiourea]
- inhibition of tyrosinase enzyme activity (in words) [6]: much weaker than thiourea

SMILES: N=C(N)[SeH] [selenourea]
- inhibition of tyrosinase enzyme activity (in words) [6]: no effect on activity

SMILES: CN(C)C(=S)N(C)C [tetramethylthiourea]
- inhibition of tyrosinase (in words) [6]: hardly inhibited tyrosinase
- inhibition of tyrosinase enzyme activity (in words) [6]: much weaker than thiourea

SMILES: NNC(N)=S [thiosemicarbazide]
- inhibition of tyrosinase enzyme activity (in words) [6]: much weaker than thiourea

SMILES: NC(N)=S [thiourea]
- inhibition of tyrosinase enzyme activity (in words) [6]: decreased tyrosinase enzyme activity in a concentration dependent manner

SMILES: CNC(=S)N(C)C [trimethylthiourea]
- inhibition of tyrosinase (in words) [6]: hardly inhibited tyrosinase
- inhibition of tyrosinase enzyme activity (in words) [6]: much weaker than thiourea

SMILES: NC(N)=O [urea]
- inhibition of tyrosinase enzyme activity (in words) [6]: no effect on activity
